Results on four compounds are retold here after patent US20080306285A1, “Heat-Labile Prodrugs” (priority 2007, published 2008).

Read-outs that look alike come from different tables or passages of the source.

As usually defined, the Cmax is the peak of the concentration-time curve. In general, Tmax refers to the time from dosing to the highest level. A word on the half-life: it is how long it takes for the measured level to halve. For orientation: AUC(0-inf) means total exposure, with the tail of the curve extrapolated. Broadly, the bioavailability is dose-corrected exposure relative to a reference, in per cent.

Data set [1] in a line: Physical stability drop tests of THCA coatings. The settings on record: up to 1.0 mg/cm^2 on stainless steel, after 6 months storage at various conditions. The data set is classed as physicochemical. From the text: An advantage of THCA is that it is a solid that forms a physically stable film, as opposed to Δ^9-THC, which is a viscous oil whose coated films are subject to flow.

The nature of data set [2]: Aerosol particle size by Anderson Cascade Impactor. Format: physicochemical. The settings on record: THC aerosol from THCA film, 1 mg/cm^2, aerosol mass 1 mg, 28.3 L/min. How it is done: Particle size distribution is characterized by the mass median aerodynamic diameter (MMAD) and the geometric standard deviation (GSD). For thermal condensation aerosols, such as those disclosed herein and in our previous patent applications, particle size is governed by the competing mechanisms of condensation and Brownian aggregation.
All particle size experiments were conducted by vaporizing drug films into an 8-stage Anderson Cascade Impactor (ACI) fitted with a glass fiber filter. The ACI consists of several stages, with each successive stage having a smaller size cutoff. By extracting and determining the mass of drug deposited at each stage, it is possible to estimate the particle size distribution of the aerosol.
An air flow of 28.3 L/min was used to generate the aerosol and distribute it through the ACI. Each stage and filter was extracted with organic solvent and analyzed using HPLC. The MMAD and GSD were calculated from the quantity of aerosol on each stage. The MMAD for the THC aerosol (generated from THCA film, drug loading=1 mg/cm^2; aerosol mass=1 mg) was 2.2 μm and the GSD [84/16] was 2.2. In addition, the fine particle fraction (FPF, MMAD <5 μm) was over 95%. These values are well within the range normally accepted for effective pulmonary deposition.

Data set [3] is described as follows: Pharmacokinetics of THC aerosol by inhalation in Beagle dogs. The data set is classed as in vivo. As to conditions: for time of maximum arterial plasma concentration: arterial blood, FIG. 14; for time of venous plasma concentration peak: venous blood, FIG. 15; for Cmax / Tmax / half-life: plasma (venous); for Cmax / Tmax / half-life / AUC(0-inf): 0.93 mg, inhalation 0.93 mg THC + 0.11 THCA, venous plasma THC; for Fraction of THC Emitted Dose in Exhalation: based on 924 μg THC emitted dose; for BA: inhalation vs IV; for THC in Exhaled Breath: 5 sec breath hold. The method, then: A study was conducted in order to compare the pharmacokinetics (PK) of delivering THC by inhalation from a thermally labile prodrug to those of an intravenous (IV) bolus. A device consisting of a control electronics PC board, air-flow regulator, inhalation valve, air-flow meter, and indo-tracheal tube was used to generate and administer THC aerosol to Beagle dogs. Two safety mechanisms built into the device prevent harm to the test subject: one that closes the inhalation valve when the selected air volume is delivered to the test subject, and one that vents the system to ambient air if the circuit board loses control over the system (due to power failure, etc.).
The in vivo portion of the study was designed with a target THC emitted dose of 0.98 mg. Aerosol quality samples were captured prior to and immediately following animal dosing in a manner consistent with previous pre-PK development work and the animal dosing parameters. The emitted dose samples were collected on 2 μm Teflon filters, while the particle size samples were collected using an ACI fitted with glass fiber filters. After aerosol collection, the filters were stored in amber vials in a freezer prior to analysis. All results were within the acceptable range determined from a previous development study.
For the inhalation portion, four Beagle dogs (2 male/2 female) were exposed to THC aerosol by forced maneuver inhalation exposure. A breath hold of 5 sec was followed by exhalation into a Teflon filter. The filters were placed in vials for analysis using HPLC. Body weight, inhalation volume, exhalation volume, and quantity of THC in exhalation for each test subject are set forth in Table Three, below.
(§1) All blood samples measured 0.5 mL and were collected in plastic vials containing K2EDTA as the anticoagulant. The vials were placed on wet ice until centrifugation to recover the plasma. The plasma samples were analyzed for THC, THCA, and the major metabolite (11-nor-9-carboxy-Δ^9-tetrahydrocannabinol) of THC using a mass spectrometry method.
Immediately after simultaneous administration of the drug and the prodrug, blood samples were drawn from both the arterial and venous circulation of the test subjects. Arterial sampling was more frequent at the early time points and was stopped at 10 minutes, while venous sampling continued to 24 hours.
(§2) Non-compartmental modeling of the venous THC plasma concentrations was performed using WinNonlin™ (WinNonlin Professional Version 4.1, Pharsight Corp., Mountain View, Calif.). Characterization of the gamma (third) terminal linear phase for the inhalation and IV portions of the study allowed us to compare the inhalation pharmacokinetics to those of IV.

For data set [4] the following is noted: FIG. 16, n=2.
Data set [5] in a line: Aerosolization of estradiol-t-BOC-Gly-Gly. The data set is classed as physicochemical. How it is done: The prodrug, estradiol-t-BOC-Gly-Gly (shown in FIG. 12 and prepared as described above), was spray coated onto stainless steel test strips (1.347 mg; […] nominal film thickness). The test articles were placed in the screening device and heated by discharging a capacitor through the foils to thermally convert the prodrug back to estradiol and form a condensation aerosol. Tests were conducted on duplicate foils at each of three temperatures (325° C., 350° C., and 380° C.) determined by the discharge voltage of the capacitor. The aerosol was collected with a Teflon filter, and the trapped aerosol was extracted from the collection apparatus using organic solvent and analyzed using HPLC.
FIG. 17 is a bar graph 1700 showing percent estradiol in aerosol 1702 as a function of vaporization temperature 1704 (n=2). FIG. 18 is a bar graph 1800 showing percent prodrug in aerosol 1802 as a function of vaporization temperature 1804 (n=2).

The nature of data set [6]: Pharmacokinetics of THC IV bolus in Beagle dogs. Format: in vivo. As to conditions: dog, venous plasma, 0.9 mg, IV injection 0.9 mg THC. How it is done: Two weeks after dosing by inhalation, the same dogs were given a 0.9 mL (adjusted to match the aerosol output measured in the pre- and post-dose aerosol quality testing) bolus IV injection of THC (1 mg/mL THC and sodium ascorbate) in 0.9% NaCl aqueous solution.
as §1, §2

For data set [7] the following is noted: oral dronabinol formulations of THC, cited from earlier work.
[8] abbreviates: Beagle, dog, inhaled or intranasal, subject 101.
Where [9] appears, read: Beagle, dog, inhaled or intranasal, subject 102.
The mark [10] stands for this setting: Beagle, dog, inhaled or intranasal, subject 103.
The mark [11] stands for this setting: Beagle, dog, inhaled or intranasal, subject 104.
Setting [12] is: both sexes, Beagle, dog, inhaled or intranasal, mean of 4 dogs.

Regarding `CCCCCc1cc2c(c(O)c1C(=O)O)C1C=C(C)CCC1C(C)(C)O2` (stereo not shown) [THCA, Δ^9-THC-2-carboxylic acid], in data set [1], the “physical stability of coating (drop tests)” value was “physically robust”. Further, in data set [2], the “GSD [84/16]” value was 2.2; the MMAD worked out at 2.2 μm; the “fine particle fraction (FPF, MMAD <5 μm)” value was “over 95%”. Also, in data set [3] (inhalation, FIGS. 14 and 15), the “absorption from the lung compared with THC” value is “substantially faster”. In addition, in data set [3] (inhalation), the “time of maximum arterial plasma concentration” value is on record as “about 30 seconds” and the “time of venous plasma concentration peak” value was “about 50 seconds”.

For `CC(C)c1cccc(C(C)C)c1OC(=O)OC(C)(C)C` [Propofol-t-BOC-Ester, O-(t-butoxycarbonyl)-propofol], in data set [4], the “aerosol purity of propofol as a function of vaporization temperature” value is on record as “decrease with increasing vaporization temperature”.

Take `CC(C)(C)OC(=O)NCC(=O)NCC(=O)Oc1ccc2c(c1)CC[C@@H]1[C@@H]2CC[C@]2(C)[C@@H](O)CC[C@@H]12` [estradiol-t-BOC-Gly-Gly, 3-(t-butoxycarbonyl-glycinyl-glycinate)-estradiol]: the estradiol in aerosol entry in data set [5] (325° C., 350° C., and 380° C., n=2, FIG. 17) is “approximately 94%”. Besides, the “unconverted prodrug in captured aerosol” value in data set [5] (325° C., 350° C., and 380° C., n=2, FIG. 18) is 1.5-2%. For the same compound, the “thermal conversion of the precursor to estradiol” value in data set [5] (empirical studies) is recorded as “up to 95%”.

With `CCCCCc1cc(O)c2c(c1)OC(C)(C)[C@@H]1CCC(C)=C[C@@H]21` [THC, Δ^9-tetrahydrocannabinol], the Cmax in data set [3] (setting [8]) was 341 ng/mL; in data set [3] (setting [9]), 190 ng/mL; in data set [3] (setting [10]) it was 358 ng/mL; in data set [3] (setting [11]), 253 ng/mL; in data set [3] (setting [12]), 286 ng/mL; in data set [6] (both sexes, mean of 4 dogs) it was 1780 ng/mL. Besides, the Cmax came to 1410 ng/mL in data set [6] (female, subject 103); 1230 ng/mL in data set [6] (female, subject 104); 3770 ng/mL in data set [6] (male, subject 101); 697 ng/mL in data set [6] (male, subject 102). The Tmax in data set [3] (setting [8]) was 3 min; in data set [3] (setting [9]), 2 min; in data set [3] (setting [10]) it was 2 min; in data set [3] (setting [11]), 2 min; in data set [3] (setting [12]) it was 2.3 min; in data set [6] (both sexes, mean of 4 dogs), 0.38 min. The Tmax in data set [6] (female, subject 103) is 0.25 min; in data set [6] (female, subject 104), 0.5 min; in data set [6] (male, subject 101) it was 0.25 min; in data set [6] (male, subject 102) it was 0.5 min; in data set [7], “up to 5 hours”. Moreover, the half-life in data set [3] (setting [8]) was 21 min; in data set [3] (setting [9]), 32.5 min; in data set [3] (setting [10]), 22.7 min; in data set [3] (setting [11]), 55.8 min; in data set [3] (setting [12]), 33 min; in data set [6] (both sexes, mean of 4 dogs), 50.8 min. Further, the half-life in data set [6] (female, subject 103) worked out at 51.3 min; in data set [6] (female, subject 104) it was 36.6 min; in data set [6] (male, subject 101), 18.1 min; in data set [6] (male, subject 102), 97.1 min. Also, the “Fraction of THC Emitted Dose in Exhalation” value turned out to be 2.8% in data set [3] (subject 101), 3.2% in data set [3] (subject 102), 2.4% in data set [3] (subject 103) and 1.7% in data set [3] (subject 104). Further, the AUC(0-inf) in data set [3] (both sexes, Beagle, dog, venous plasma, inhaled or intranasal, mean of 4 dogs) was 92.5 ng·h/mL; in data set [3] (female, Beagle, dog, venous plasma, inhaled or intranasal, subject 103), 1140 ng·h/mL; in data set [3] (female, Beagle, dog, venous plasma, inhaled or intranasal, subject 104) it was 92.6 ng·h/mL; in data set [3] (male, Beagle, dog, venous plasma, inhaled or intranasal, subject 101), 99.4 ng·h/mL; in data set [3] (male, Beagle, dog, venous plasma, inhaled or intranasal, subject 102), 64.5 ng·h/mL; in data set [6] (both sexes, mean of 4 dogs), 142 ng·h/mL. In addition, the AUC(0-inf) was 139 ng·h/mL in data set [6] (female, subject 103); 118 ng·h/mL in data set [6] (female, subject 104); 164 ng·h/mL in data set [6] (male, subject 101); 146 ng·h/mL in data set [6] (male, subject 102). Besides, the bioavailability was 67% in data set [3] (both sexes, Beagle, dog, venous plasma, inhaled or intranasal, inhalation) and “less than 50%” in data set [7] (typical). Further, the “difference in Tmax between THC and its prodrug Δ^9-THC-2-carboxylic acid” value in data set [3] (inhalation) stood at 3 fold. The BA in data set [3] (mean of 4 dogs) is given as 67.4%; in data set [3] (subject 101), 59.7%; in data set [3] (subject 102), 43.9%; in data set [3] (subject 103) it was 84.5%; in data set [3] (subject 104), 81.6%. For the same compound, the “THC in Exhaled Breath” value in data set [3] (inhalation, subject 101 (M)) was determined as 26.2 µg; in data set [3] (inhalation, subject 102 (M)) it was 29.6 µg; in data set [3] (inhalation, subject 103 (F)), 22.3 µg; in data set [3] (inhalation, subject 104 (F)), 15.8 µg. The “time of maximum arterial plasma concentration” value in data set [3] (inhalation) was found to be 90 s. For the same compound, the “time of venous plasma concentration peak” value in data set [3] (inhalation) is reported as “about 150 seconds”.
